Assay: xn = mol fraction of the nth substance listed
Settings: 101 kPa, Liquid

CCOS(=O)(=O)[O-].CCn1cc[n+](C)c1 [1-ethyl-3-methylimidazolium ethyl sulfate] + CCO
mass density [kg/m3]
Settings	278.15 K	283.15 K	288.15 K	293.15 K	298.15 K	303.15 K	308.15 K
x2 = 0	1251.4	1247.84	1244.39	1241.01	1237.63	1234.24	1230.87
x2 = 0.016	1249.64	1246.08	1242.65	1239.25	1235.85	1232.45	1229.05
x2 = 0.0254	1248.22	1244.65	1241.24	1237.84	1234.43	1231.03	1227.63
x2 = 0.0425	1246.12	1242.58	1239.16	1235.76	1232.34	1228.94	1225.53
x2 = 0.0877	1240.95	1237.47	1234.04	1230.59	1227.18	1223.75	1220.34
x2 = 0.1178	1235.48	1232.05	1228.59	1225.14	1221.7	1218.26	1214.84
x2 = 0.142	1231.31	1227.85	1224.38	1220.92	1217.47	1214.02	1210.59
x2 = 0.2344	1216.31	1212.79	1209.28	1205.78	1202.3	1198.83	1195.36
x2 = 0.4236	1174.57	1170.96	1167.36	1163.79	1160.21	1156.65	1153.1
x2 = 0.6005	1116.78	1113.06	1109.36	1105.67	1101.99	1098.32	1094.66
x2 = 0.7305	1055.36	1051.54	1047.72	1043.92	1040.12	1036.36	1032.55
x2 = 0.833	987.08	983.14	979.21	975.3	971.37	967.46	963.54
x2 = 0.9022	925.53	921.55	917.81	913.45	910.22	906.22	902.18
x2 = 0.9567	863.73	860.74	856.8	851.32	848.59	844.44	840.27
x2 = 0.9846	826.39	822.21	818.01	813.81	809.59	805.36	801.09
x2 = 0.9924	814.42	810.28	806.17	801.75	797.8	793.53	789.23
x2 = 0.9963	808.01	803.79	799.55	795.3	791.03	786.74	782.41

Source: the NIST ThermoML archive (doi:10.1021/je1002237)
